The text below walks through data of BindingDB's records for doi:10.1002/cbic.200400099 (Technische UniversitÄT Braunschweig, 2005).

Holding throughout (assay): Kinase Assay
Holding throughout (details): pH 7.5; 30 °C

In assay [1] the target is Cyclin-dependent kinase 5 (Homo sapiens, UniProt Q00535).
Description: (§1) Kinase activity assay using GSK-3beta, CDK1/cyclin B and CDK5/p25.
For assay [2], the target named is Cyclin-dependent kinase 1 (Homo sapiens, UniProt P06493).
Description: as §1
For assay [3], the target named is Glycogen synthase kinase-3 beta (Homo sapiens, UniProt P49841).
Glycogen synthase kinase-3 beta, sequence (P49841 whole entry): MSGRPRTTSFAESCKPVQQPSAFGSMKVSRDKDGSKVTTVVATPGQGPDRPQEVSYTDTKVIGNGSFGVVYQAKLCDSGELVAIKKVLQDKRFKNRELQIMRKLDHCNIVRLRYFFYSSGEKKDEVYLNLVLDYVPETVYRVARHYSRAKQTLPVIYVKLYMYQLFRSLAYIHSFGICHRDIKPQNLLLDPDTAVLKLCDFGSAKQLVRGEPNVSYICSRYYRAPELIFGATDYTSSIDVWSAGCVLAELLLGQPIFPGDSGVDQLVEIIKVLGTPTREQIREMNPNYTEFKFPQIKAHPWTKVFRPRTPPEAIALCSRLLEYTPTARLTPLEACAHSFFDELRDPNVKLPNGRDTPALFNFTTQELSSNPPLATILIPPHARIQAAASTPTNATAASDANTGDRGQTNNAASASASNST
Description: as §1

Cyclin-dependent kinase 5, sequence (Q00535 whole entry): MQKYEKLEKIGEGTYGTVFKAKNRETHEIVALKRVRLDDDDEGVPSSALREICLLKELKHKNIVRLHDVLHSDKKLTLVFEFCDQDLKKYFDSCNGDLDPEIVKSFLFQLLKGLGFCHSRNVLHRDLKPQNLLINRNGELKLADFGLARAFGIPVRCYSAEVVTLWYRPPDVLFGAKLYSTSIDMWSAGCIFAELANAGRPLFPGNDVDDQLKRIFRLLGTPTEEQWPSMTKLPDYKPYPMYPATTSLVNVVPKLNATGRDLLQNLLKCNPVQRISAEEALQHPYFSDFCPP
Cyclin-dependent kinase 1, sequence (P06493 whole entry): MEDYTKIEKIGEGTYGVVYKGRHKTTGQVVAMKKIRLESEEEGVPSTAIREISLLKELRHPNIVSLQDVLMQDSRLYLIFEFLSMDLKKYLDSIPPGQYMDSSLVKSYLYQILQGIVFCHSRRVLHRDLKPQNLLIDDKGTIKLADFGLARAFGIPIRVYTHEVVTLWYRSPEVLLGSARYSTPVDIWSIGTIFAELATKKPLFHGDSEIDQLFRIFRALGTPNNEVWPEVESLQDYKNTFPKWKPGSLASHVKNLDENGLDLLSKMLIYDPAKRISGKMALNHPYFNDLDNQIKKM

Take `NCCCc1ccc2c(c1)-c1[nH]c3ccc([N+](=O)[O-])cc3c1CC(=O)N2` [Alsterpaullone derivative, 4]: the 50% inhibitory concentration (IC50) was 23 nM in assay [1], 27 nM in assay [2] and 2.5 nM in assay [3].
The like results for `O=C(O)CCc1ccc2c(c1)-c1[nH]c3ccc([N+](=O)[O-])cc3c1CC(=O)N2` [Alsterpaullone derivative, 5] were, in that order, 80 nM, 25 nM and 6.5 nM.
`NCCCCc1ccc2c(c1)-c1[nH]c3ccc([N+](=O)[O-])cc3c1CC(=O)N2` [Alsterpaullone derivative, 3]: the half-maximal inhibitory concentration (IC50) in assay [1] was determined as 70 nM; in assay [2], 80 nM; in assay [3], 6 nM.
The like results for `COC(=O)CCc1ccc2c(c1)-c1[nH]c3ccc([N+](=O)[O-])cc3c1CC(=O)N2` [Alsterpaullone derivative, 6] were, in that order, 250 nM, 100 nM and 34 nM.
As for `N#CCCc1ccc2c(c1)-c1[nH]c3ccc([N+](=O)[O-])cc3c1CC(=O)N2`, the IC50 in assay [1] is 30 nM; in assay [2] it was 0.23 nM; in assay [3] it was 0.8 nM.

For orientation: IC50 means the concentration needed to halve the response being measured. High values mean weaker potency in that assay, low ones greater potency in that assay.
